Results on 18 molecules are retold here after patent publication US6410561B1, “Amide derivatives and nociceptin antagonists” (Japan Tobacco Inc., priority 1998, dated 2002).

Data set [1] deals with T1, ORL-1 receptor (Homo sapiens, UniProt P41146).
T1 construct: expressed in transfected cells
Kind of data set: ORL1 receptor binding assay ([3H]nociceptin). As to conditions: for Ki: calculated from IC50 and Kd of [3H]nociceptin; for IC50: membrane of human ORL-1 expression cells, [3H]nociceptin 0.5 nM. The method, then:
ORL1 Receptor Binding Assay
A cell membrane suspension obtained from human ORL-1 expression cells was adjusted with Tris buffer [50 mM Tris, 2 mM EDTA, 0.1 mM (p-Amidinophenyl)methanesulfonyl Fluoride Hydrochloride (p-APMSF), 2 mg/ml BSA] to membrane protein amount of about 25 μg/ml (2.5 μg/well). This was mixed with [^3H]nociceptin (diluted with Tris buffer to a final concentration of 0.5 nM) and test compound (diluted with Tris buffer to a final concentration of 10 nM-10 μM), and the mixture was incubated at room temperature for 60 min. The membrane was recovered on a G/F-B filter (Packard, Unifilter 96GF/B) using a cell harvester and the reaction was stopped. After washing 3 times, the filter was dried at 42° C. for 1 hr. A scintillation solution (Packard, microscint-20) was added and the radioactivity (Packard, Top count A9912V) was assayed.
The nonspecific binding was the binding in the presence of 1 μM nociceptin and the difference between the total binding and nonspecific binding was taken as the specific binding. IC50 was calculated from inhibition of specific binding at each concentration of the compound, and Ki value of the test compound was calculated from this value and Kd value of [^3H]nociceptin.

The target of data set [2] is T2, μ receptor (Rattus norvegicus, UniProt P33535).
T2 construct: Rat cerebrum membrane standard sample; from tissue; host or cells: rat cerebrum membranes
In words: μ receptor binding assay ([3H]DAMGO). Particulars: for Ki: calculated from IC50 and Kd of [3H]DAMGO; for IC50: rat cerebrum membrane, [3H]DAMGO 1 nM. The method, then: Rat cerebrum membrane standard sample (final concentration 0.755 mg·protein/ml), [^3H]DAMGO (Try-D-Ala-Gly-NMe-Phe-Gly-ol) [diluted with Tris buffer (50 mM Tris-HCl, 0.1 mM p-APMSF, 2 mg/ml BSA (pH=7.4)) to a final concentration of 1 nM] and test compound (diluted with Tris buffer to a final concentration of 10 nM-10 μM) were mixed, and the mixture was incubated at room temperature for 90 min. The membrane was recovered on a G/F-B filter (same as above) using a cell harvester and the reaction was stopped. After washing 3 times, the filter was dried at 42° C. for 1 hr. A scintillation solution (same as above) was added and the radioactivity (same as above) was assayed.
The nonspecific binding was the binding in the presence of 10 μM naloxone and the difference between the total binding and nonspecific binding was taken as the specific binding. IC50 was calculated from inhibition of specific binding at each concentration of the compound, and Ki value of the test compound was calculated from this value and Kd value of [^3H]DAMGO.

Data set [3] deals with allodynia model. Kind of data set: Allodynia test (intrathecal nociceptin, tactile stimulation). The format is in vivo, Mice. As to conditions: Mus musculus, read-out: Allodynia M.E.D. (minimum effective dose). The method, then:
Mice (Crj, ICR, 4-week-old, male) were intrathecally administered with nociceptin (50 pg/5 μl) without anesthesia. For 20 min after administration and at 5 min intervals, an area from lateral region to tail of the mice was rubbed with a brush and the response of the mice was observed. The evaluation followed the criteria of 0; no change, 1; run or cry upon tactile stimulation, and 2; cry loud or dash away upon tactile stimulation. The test compound was suspended in a 0.5% MC solution and orally administered 60 min before nociceptin administration. The significant difference of the score of each administration group at 20 min after nociceptin administration from the group administered with solvent was analyzed with Mann-Whitny U-test.

The test system of data set [4] is Mice. Kind of data set: Hot-plate test. As to conditions: Mus musculus, 1 h, oral, 60 min after administration, 55.5°C, read-out: Hot-plate M.E.D. (minimum effective dose). The data set is classed as in vivo. The method, then: Mice (Crj, ICR, 4-week-old, male) were placed on a hot-plate (temperature 55.5±0.5° C.) and the time until the mice jumped and tried to run away was recorded. The mice were grouped according to the time and body weight so that the groups were evenly membered. The test compound was suspended in a 0.5% methylcellulose (MC) solution and orally administered to mice. After 60 min, the mice were again placed on a hot-plate and the time until they licked the hindlimb or jumped and tried to run away was recorded. The significant difference from the group administered with solvent was analyzed with ANOVA followed by Dunnett two-tailed test.
For orientation: Thermal pain tests record how soon the animal reacts.

Setting [5] is: mice, oral, 60 min before nociceptin 50 pg i.t., score at 20 min.

Where two headings read alike, the source gives them in different places.

T1 sequence (P41146 whole entry): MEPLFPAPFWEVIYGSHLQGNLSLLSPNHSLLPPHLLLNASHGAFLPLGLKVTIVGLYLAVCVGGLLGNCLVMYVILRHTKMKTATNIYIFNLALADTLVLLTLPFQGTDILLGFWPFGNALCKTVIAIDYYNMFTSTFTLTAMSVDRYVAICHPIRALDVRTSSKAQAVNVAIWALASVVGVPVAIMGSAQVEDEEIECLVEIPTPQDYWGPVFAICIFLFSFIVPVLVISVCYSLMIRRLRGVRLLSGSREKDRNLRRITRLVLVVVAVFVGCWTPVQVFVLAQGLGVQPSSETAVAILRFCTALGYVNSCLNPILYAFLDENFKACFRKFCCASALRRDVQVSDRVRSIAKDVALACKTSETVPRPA
T2 sequence (P33535 whole entry): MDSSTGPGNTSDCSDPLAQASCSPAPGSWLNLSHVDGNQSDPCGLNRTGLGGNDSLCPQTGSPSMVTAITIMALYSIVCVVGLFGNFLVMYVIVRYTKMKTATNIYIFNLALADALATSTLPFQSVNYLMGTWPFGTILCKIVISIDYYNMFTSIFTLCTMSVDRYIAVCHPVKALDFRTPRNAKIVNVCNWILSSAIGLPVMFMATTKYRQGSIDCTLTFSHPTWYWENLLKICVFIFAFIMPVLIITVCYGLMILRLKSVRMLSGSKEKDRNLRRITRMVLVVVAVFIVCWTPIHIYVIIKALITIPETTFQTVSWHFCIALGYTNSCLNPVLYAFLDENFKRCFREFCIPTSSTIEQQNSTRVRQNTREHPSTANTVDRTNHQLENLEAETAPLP

Take `CCc1ccc(OCc2ccccc2C(=O)Nc2ccc3nc(C)cc(N)c3c2)cc1.Cl` [Example 1, N-(4-amino-2-methyl-6-quinolyl)-2-[(4-ethylphenoxy)methyl]-benzamide hydrochloride]: the Ki (usually a dissociation constant, usually derived from enzyme kinetics or from competition with a known ligand) was 0.007 µM in data set [1] and 0.57 µM in data set [2]. The IC50 – broadly, the point on the concentration scale where inhibition reaches its midpoint – in data set [1] was found to be 0.12 µM; in data set [2] it was 1.52 µM. Moreover, the minimal effective dose in data set [3] (setting [5]) worked out at 0.3 mg/kg; in data set [4] it was 1 mg/kg.

Turning to `Cc1cc(N)c2cc(NC(=O)c3ccccc3COc3ccccc3)ccc2n1.Cl` [Example 3, N-(4-amino-2-methyl-6-quinolyl)-2-(phenoxymethyl)benzamide hydrochloride], the Ki in data set [1] was 0.079 µM; in data set [2], 0.417 µM. The IC50 in data set [1] amounted to 1.47 µM; in data set [2], 1.11 µM. Moreover, the results for the minimal effective dose in data set [3] (setting [5]) and in data set [4] were 3 mg/kg and 30 mg/kg, respectively.

Turning to `Cc1cc(C)cc(OCc2ccccc2C(=O)Nc2ccc3nc(C)cc(N)c3c2)c1.Cl` [Example 5, N-(4-amino-2-methyl-6-quinolyl)-2-[(3,5-dimethylphenoxy)methyl]benzamide hydrochloride], the melting point (as a rule, the temperature of the solid-liquid transition) stood at 265 °C. Besides, in data set [1], the Ki was 0.028 µM and the IC50 was determined as 0.52 µM. In data set [2], the Ki is 0.505 µM and the IC50 came out at 1.34 µM. In addition, in data set [3] (setting [5]), the minimal effective dose is 3 mg/kg.

`COc1cccc(OCc2ccccc2C(=O)Nc2ccc3nc(C)cc(N)c3c2)c1OC.Cl` [Example 8, N-(4-amino-2-methyl-6-quinolyl)-2-[(2,3-dimethoxyphenoxy)methyl]benzamide hydrochloride] gave a melting point of 196 °C. In data set [1], the Ki was 0.05 µM and the IC50 came out at 0.94 µM. In data set [2], the Ki was 0.183 µM and the IC50 came out at 0.49 µM. Further, in data set [3] (setting [5]), the minimal effective dose came out at 3 mg/kg.

`Cc1cccc(OCc2ccccc2C(=O)Nc2ccc3nc(C)cc(N)c3c2)c1` [Example 9, N-(4-amino-2-methyl-6-quinolyl)-2-[(3-methylphenoxy)methyl]benzamide]: the Ki in data set [1] is 0.016 µM; in data set [2], 0.764 µM. Further, the IC50 in data set [1] worked out at 0.32 µM; in data set [2] it was 2.03 µM. For the same molecule, the minimal effective dose was 1 mg/kg in data set [3] (setting [5]) and less than 3 mg/kg in data set [4].

For `Cc1cc(N)c2cc(NC(=O)c3ccccc3COc3ccc(C(F)(F)F)cc3)ccc2n1.Cl` [Example 18, N-(4-amino-2-methyl-6-quinolyl)-2-[(4-trifluoromethylphenoxy)methyl]benzamide hydrochloride], the melting point amounted to 220 °C. In data set [1], the Ki was 0.004 µM and the IC50 was found to be 0.09 µM. In data set [2], the Ki is 0.393 µM and the IC50 is 1.04 µM. Also, in data set [3] (setting [5]), the minimal effective dose turned out to be 0.3 mg/kg.

In the case of `Cc1cc(N)c2cc(NC(=O)c3ccccc3COc3ccccc3Cl)ccc2n1.Cl` [Example 27, N-(4-amino-2-methyl-6-quinolyl)-2-[(2-chlorophenoxy)methyl]benzamide hydrochloride], the melting point was 165 °C. For the same molecule, in data set [2], the Ki is 0.414 µM and the IC50 worked out at 1.06 µM. The minimal effective dose in data set [3] (po) was determined as 0.3 mg/kg.

With `Cc1cc(N)c2cc(NC(=O)c3ccccc3COc3ccc([N+](=O)[O-])cc3)ccc2n1.Cl` [Example 32, N-(4-amino-2-methyl-6-quinolyl)-2-[(4-nitrophenoxy)methyl]benzamide hydrochloride], the melting point turned out to be 238 °C. In addition, in data set [2], the Ki was 0.227 µM and the IC50 amounted to 0.58 µM. The minimal effective dose in data set [3] (po) was more than 0.3 mg/kg.

Regarding `Cc1cc(N)c2cc(NC(=O)c3ccccc3COc3ccc(Br)cc3)ccc2n1.Cl` [Example 33, N-(4-amino-2-methyl-6-quinolyl)-2-[(4-bromophenoxy)methyl]benzamide hydrochloride], the melting point came out at 252 °C. In addition, in data set [1], the Ki was 0.005 µM and the IC50 was 0.09 µM. Also, in data set [2], the Ki is 0.565 µM and the IC50 is 1.44 µM. Further, the minimal effective dose in data set [3] (setting [5]) was found to be 0.3 mg/kg.

As for `CCCc1ccc(OCc2ccccc2C(=O)Nc2ccc3nc(C)cc(N)c3c2)cc1.Cl` [Example 34, N-(4-amino-2-methyl-6-quinolyl)-2-[(4-propylphenoxy)methyl]benzamide hydrochloride], the Ki is 0.008 µM in data set [1] and 0.888 µM in data set [2]. The IC50 in data set [1] amounted to 0.14 µM; in data set [2], 2.37 µM. Also, the values for the minimal effective dose in data set [3] (setting [5]) and in data set [4] were 0.3 mg/kg and 3 mg/kg, respectively.

Regarding `Cc1cc(N)c2cc(NC(=O)c3ccccc3COc3ccc(Cl)c(C)c3)ccc2n1.Cl` [Example 42, N-(4-amino-2-methyl-6-quinolyl)-2-[(4-chloro-3-methylphenoxy)methyl]benzamide hydrochloride], the Ki is 0.004 µM in data set [1] and 0.745 µM in data set [2]. The IC50 in data set [1] is 0.08 µM; in data set [2], 1.99 µM. Besides, the minimal effective dose in data set [3] (setting [5]) was 0.3 mg/kg; in data set [4], 1 mg/kg.

As to `Cc1ccc(OCc2ccccc2C(=O)Nc2ccc3nc(C)cc(N)c3c2)c(Cl)c1.Cl` [Example 43, N-(4-amino-2-methyl-6-quinolyl)-2-[(2-chloro-4-methylphenoxy)methyl]benzamide hydrochloride], the Ki in data set [1] was 0.005 µM; in data set [2] it was 0.785 µM. Moreover, the IC50 was 0.11 µM in data set [1] and 2.1 µM in data set [2]. For the same molecule, the figures for the minimal effective dose in data set [3] (setting [5]) and in data set [4] were 0.3 mg/kg and 1 mg/kg, respectively.

As to `CCc1cc(N)c2cc(NC(=O)c3ccccc3COc3ccc(Cl)cc3)ccc2n1.Cl` [Example 49], the values for the Ki in data set [1] and in data set [2] were 0.002 µM and 0.464 µM, respectively. For the same molecule, the IC50 in data set [1] worked out at 0.04 µM; in data set [2] it was 1.26 µM. The minimal effective dose in data set [3] (setting [5]) was 0.3 mg/kg; in data set [4] it was 1 mg/kg.

With `Cc1cc(N)c2cc(NC(=O)c3ccccc3CCCCOc3ccccc3)ccc2n1.Cl` [Example 63], in data set [1], the Ki is 0.054 µM and the IC50 stood at 1.03 µM. In addition, in data set [2], the Ki is 0.545 µM and the IC50 came out at 1.42 µM. In addition, in data set [3] (setting [5]), the minimal effective dose is more than 3 mg/kg.

In the case of `Cc1cc(N)c2cc(NC(=O)c3ccccc3CCCCCOc3ccccc3)ccc2n1.Cl` [Example 64], the melting point is 253 °C. Also, in data set [1], the Ki was 0.073 µM and the IC50 is 1.39 µM. In data set [2], the Ki was 1.38 µM and the IC50 was 3.61 µM. Moreover, the minimal effective dose in data set [3] (setting [5]) was more than 3 mg/kg.

In turn, `Cc1cc(N)c2cc(NC(=O)c3ccccc3CCCCCCOc3ccccc3)ccc2n1.Cl` [Example 66] displayed a melting point of 210 °C. In addition, in data set [1], the Ki was 0.108 µM and the IC50 turned out to be 2 µM. Also, the minimal effective dose in data set [3] (setting [5]) is more than 3 mg/kg.

With `CCc1ccc(OCc2ccccc2C(=O)Nc2ccc3nc(CC)cc(N)c3c2)c(Cl)c1` [Example 90], in data set [1], the Ki was 0.005 µM and the IC50 is 0.11 µM. Also, in data set [2], the Ki is 0.442 µM and the IC50 worked out at 1.18 µM. Further, the minimal effective dose in data set [4] is 3 mg/kg.

`Cc1cc(N)c2cc(NC(=O)c3ccccc3COc3ccc4c(c3)CCO4)ccc2n1.Cl` [Example 93] had a melting point of 233 °C. Also, in data set [1], the Ki was 0.007 µM and the IC50 came to 0.12 µM. The minimal effective dose in data set [3] (setting [5]) is more than 0.3 mg/kg.
